Measurements: patent publication US20240384350A1, “METHODS OF TREATING CANCER WITH KINASE INHIBITORS” (BOARD OF REGENTS, THE UNIVERSITY OF TEXAS SYSTEM, priority 2021, published 2024)

Assays:
Experiment in all cases: Ba/F3 drug screening, Cell Titer Glo, IC50 Mut/WT
Format in all cases: cell-based
EGFR Ex19del/T790M/L792H = biological target: T1, EGFR Ex19del/T790M/L792H (Homo sapiens, UniProt P00533, DEL746-750/L792H/T790M); settings: T790M-like-3R, 72 hours
T1 construct: expressed in transfected cells; host or cells: Ba/F3

EGFR L858R S784F = biological target: T2, EGFR L858R S784F (Homo sapiens, UniProt P00533, L858R/S784F); settings: Classical-Like, 72 hours
T2 construct: expressed in transfected cells; host or cells: Ba/F3 cells, retroviral pBabe-Puro vector (vector made by GeneScript from EGFR L858R)
Experimental: (§1) Data represent the ratio of the IC50 value for a given TKI for cells with a classical-like EGFR mutation to the IC50 value for cells with wildtype EGFR.
(§2) Ba/F3 cell generation, drug screening, and IC50 approximations. Ba/F3 cells were obtained as a gift from Dr. Gordon Mills (MD Anderson Cancer Center), and maintained in RPMI (Sigma) containing 10% FBS, 1% penicillin/streptomycin, and 10 ng/ml recombinant mIL-3 (R&D Biosystems). To establish stable Ba/F3 cell lines, Ba/F3 cells were transduced with retroviruses containing mutant EGFR plasmids for 12-24 hours.
(§3) After 48-72 hours of transduction, 2 μg/ml puromycin (Invitrogen) was added to Ba/F3 cell lines in complete RPMI. To select for EGFR positive cell lines, cells were stained with PE-EGFR (Biolegend) and sorted by FACS. After sorting, EGFR positive cells were maintained in RPMI containing 10% FBS, 1% penicillin/streptomycin, and 1 ng/ml EGF to support cell viability. […] Shortly, cells were plated in 384-well plates (Greiner Bio-One) at 2000-3000 cells per well in technical triplicate. Seven different concentrations of TKIs or DMSO vehicle were added to reach a final volume of 40 μL per well. After 72 hours, 11 μL of Cell Titer Glo (Promega) was added to each well. Plates were incubated for a minimum of 10 minutes, and bioluminescence was determined using a FLUOstar OPTIMA plate reader (BMG LABTECH). Raw bioluminescence values were normalized to DMSO control treated cells, and values were plotted in GraphPad Prism. […] Drug screens were performed in technical triplicate on each plate and either duplicate or triplicate biological replicates.

EGFR L833V = biological target: T3, EGFR L833V (Homo sapiens, UniProt P00533, L833V); settings: Classical-Like, 72 hours
T3 construct: expressed in transfected cells; host or cells: Ba/F3 cells, retroviral pBabe-Puro vector
Experimental: as §1, §2, §3

EGFR L858R/C797S = biological target: T4, EGFR L858R/C797S (Homo sapiens, UniProt P00533, C797S/L858R); settings: Ba/F3 cells, EGFR L858R/C797S (PACC), Mut/WT
T4 construct: expressed in transfected cells; host or cells: Ba/F3
Experimental: (§4) Data represent the ratio of the IC50 value for a given TKI for cells with a PACC EGFR mutation to the IC50 value for cells with wildtype EGFR.
as §2
(§5) After 48-72 hours of transduction, 2 μg/ml puromycin (Invitrogen) was added to Ba/F3 cell lines in complete RPMI. To select for EGFR positive cell lines, cells were stained with PE-EGFR (Biolegend) and sorted by FACS. After sorting, EGFR positive cells were maintained in RPMI containing 10% FBS, 1% penicillin/streptomycin, and 1 ng/ml EGF to support cell viability. Drug screening was performed as previously described^41,42. Shortly, cells were plated in 384-well plates (Greiner Bio-One) at 2000-3000 cells per well in technical triplicate. Seven different concentrations of TKIs or DMSO vehicle were added to reach a final volume of 40 μL per well. After 72 hours, 11 μL of Cell Titer Glo (Promega) was added to each well. Plates were incubated for a minimum of 10 minutes, and bioluminescence was determined using a FLUOstar OPTIMA plate reader (BMG LABTECH). Raw bioluminescence values were normalized to DMSO control treated cells, and values were plotted in GraphPad Prism. […] Drug screens were performed in technical triplicate on each plate and either duplicate or triplicate biological replicates.

EGFR G719S = biological target: T5, EGFR G719S (Homo sapiens, UniProt P00533, G719S); settings: Ba/F3 cells, EGFR G719S (PACC), Mut/WT
T5 construct: expressed in transfected cells; host or cells: Ba/F3
Experimental: as §4, §2, §5

EGFR L858R/L792H = biological target: T6, EGFR L858R/L792H (Homo sapiens, UniProt P00533, L792H/L858R); settings: Ba/F3 cells, EGFR L858R/L792H (PACC), Mut/WT
T6 construct: expressed in transfected cells; host or cells: Ba/F3
Experimental: as §4, §2, §5

EGFR G719S T790M = biological target: T7, EGFR G719S T790M (Homo sapiens, UniProt P00533, G719S/T790M); settings: T790M-like-3S, 72 hours
T7 construct: expressed in transfected cells; host or cells: Ba/F3

EGFR Ex19del G796S = biological target: T8, EGFR Ex19del G796S (Homo sapiens, UniProt P00533, DEL746-750/G796S); settings: Ba/F3 cells, EGFR Ex19del G796S (PACC), Mut/WT
T8 construct: expressed in transfected cells; host or cells: Ba/F3
Experimental: as §4, §2, §5

EGFR L858R G724S = biological target: T9, EGFR L858R G724S (Homo sapiens, UniProt P00533, G724S/L858R); settings: Ba/F3 cells, EGFR L858R G724S (PACC), Mut/WT
T9 construct: expressed in transfected cells; host or cells: Ba/F3 (retroviral transduction, pBabe-Puro based vectors)

EGFR L858R = biological target: T10, EGFR L858R (Homo sapiens, UniProt P00533, L858R); settings: Classical-Like, 72 hours
T10 construct: expressed in transfected cells; host or cells: Ba/F3 cells, retroviral pBabe-Puro vector
Experimental: as §1, §2, §3

EGFR L833F = biological target: T11, EGFR L833F (Homo sapiens, UniProt P00533, L833F); settings: Classical-Like, 72 hours
T11 construct: expressed in transfected cells; host or cells: Ba/F3 cells, retroviral pBabe-Puro vector
Experimental: as §1, §2, §3

EGFR R776H = biological target: T12, EGFR R776H (Homo sapiens, UniProt P00533, R776H); settings: Ba/F3 cells, EGFR R776H (PACC), Mut/WT
T12 construct: host or cells: Ba/F3
Experimental: as §4, §2, §5

EGFR Ex19del T790M L718V = biological target: T13, EGFR Ex19del T790M L718V (Homo sapiens, UniProt P00533, DEL746-750/L718V/T790M); settings: T790M-like-3S, 72 hours
T13 construct: expressed in transfected cells; host or cells: Ba/F3
Experimental: (§6) Data represent the ratio of the IC50 value for a given TKI for cells with a T790M-like-3S EGFR mutation to the IC50 value for cells with wildtype EGFR.
as §2, §5

EGFR G719A = biological target: T14, EGFR G719A (Homo sapiens, UniProt P00533, G719A); settings: Ba/F3 cells, EGFR G719A (PACC), Mut/WT
T14 construct: expressed in transfected cells; host or cells: Ba/F3

[1] = biological target: T15, EGFR L747_K754del insATSPE (Homo sapiens, UniProt P00533, DEL747-749/K754E); settings: T790M-like-3S, 72 hours
T15 construct: expressed in transfected cells; host or cells: Ba/F3 cells, retroviral pBabe-Puro vector
Experimental: as §6, §2, §5

EGFR L858R/V834L = biological target: T16, EGFR L858R/V834L (Homo sapiens, UniProt P00533, L858R/V834L); settings: Classical-Like, 72 hours
T16 construct: expressed in transfected cells; host or cells: Ba/F3 cells, retroviral pBabe-Puro vector

EGFR T790M = biological target: T17, EGFR T790M (Homo sapiens, UniProt P00533, T790M); settings: T790M-like-3S, 72 hours
T17 construct: expressed in transfected cells; host or cells: Ba/F3
Experimental: as §6, §2, §5

EGFR L861R = biological target: T18, EGFR L861R (Homo sapiens, UniProt P00533, L861R); settings: Classical-Like, 72 hours
T18 construct: expressed in transfected cells; host or cells: Ba/F3 cells, retroviral pBabe-Puro vector (vector made by GeneScript from EGFR WT)
Experimental: as §1, §2, §3

EGFR Ex19del = biological target: T19, EGFR Ex19del (Homo sapiens, UniProt P00533, DEL746-750); settings: Classical-Like, 72 hours
T19 construct: expressed in transfected cells; host or cells: Ba/F3 cells, retroviral pBabe-Puro vector

EGFR Ex19del T790M C797S = biological target: T20, EGFR Ex19del T790M C797S (Homo sapiens, UniProt P00533, C797S/DEL746-750/T790M); settings: T790M-like-3R, 72 hours
T20 construct: expressed in transfected cells; host or cells: Ba/F3

EGFR K757R = biological target: T21, EGFR K757R (Homo sapiens, UniProt P00533, K757R); settings: Ba/F3 cells, EGFR K757R (PACC), Mut/WT
T21 construct: expressed in transfected cells; host or cells: Ba/F3
Experimental: as §4, §2
After 48-72 hours of transduction, 2 μg/ml puromycin (Invitrogen) was added to Ba/F3 cell lines in complete RPMI. To select for EGFR positive cell lines, cells were stained with PE-EGFR (Biolegend) and sorted by FACS. After sorting, EGFR positive cells were maintained in RPMI containing 10% FBS, 1% penicillin/streptomycin, and 1 ng/ml EGF to support cell viability. Drug screening was performed as previously described^41,42. Shortly, cells were plated in 384-well plates (Greiner Bio-One) at 2000-3000 cells per well in technical triplicate. Seven different concentrations of TKIs or DMSO vehicle were added to reach a final volume of 40 μL per well. After 72 hours, 11 μL of Cell Titer Glo (Promega) was added to each well. Plates were incubated for a minimum of 10 minutes, and bioluminescence was determined using a FLUOstar OPTIMA plate reader (BMG LABTECH). Raw bioluminescence values were normalized to DMSO control treated cells, and values were plotted in GraphPad Prism. […] Drug screens were performed in technical triplicate on each plate and either duplicate or triplicate biological replicates. […] Statistical differences between groups were determined by ANOVA as described in the figure legends.

EGFR L858R T790M L718V = biological target: T22, EGFR L858R T790M L718V (Homo sapiens, UniProt P00533, L718V/L858R/T790M); settings: T790M-like-3R, 72 hours
T22 construct: expressed in transfected cells; host or cells: Ba/F3
Experimental: Data represent the ratio of the IC50 value for a given TKI for cells with a T790M-like-3R EGFR mutation to the IC50 value for cells with wildtype EGFR.
as §2
After 48-72 hours of transduction, 2 μg/ml puromycin (Invitrogen) was added to Ba/F3 cell lines in complete RPMI. To select for EGFR positive cell lines, cells were stained with PE-EGFR (Biolegend) and sorted by FACS. After sorting, EGFR positive cells were maintained in RPMI containing 10% FBS, 1% penicillin/streptomycin, and 1 ng/ml EGF to support cell viability. […] Shortly, cells were plated in 384-well plates (Greiner Bio-One) at 2000-3000 cells per well in technical triplicate. Seven different concentrations of TKIs or DMSO vehicle were added to reach a final volume of 40 μL per well. After 72 hours, 11 μL of Cell Titer Glo (Promega) was added to each well. Plates were incubated for a minimum of 10 minutes, and bioluminescence was determined using a FLUOstar OPTIMA plate reader (BMG LABTECH). Raw bioluminescence values were normalized to DMSO control treated cells, and values were plotted in GraphPad Prism. […] Drug screens were performed in technical triplicate on each plate and either duplicate or triplicate biological replicates. […] Statistical differences between groups were determined by ANOVA as described in the figure legends.

EGFR E709_T710del insD = biological target: T23, EGFR E709_T710del insD (Homo sapiens, UniProt P00533, DEL709-709/T710D); settings: Ba/F3 cells, EGFR E709_T710del insD (PACC), Mut/WT
T23 construct: expressed in transfected cells; host or cells: Ba/F3

EGFR S768I V774M = biological target: T24, EGFR S768I V774M (Homo sapiens, UniProt P00533, S768I/V774M); settings: Ba/F3 cells, EGFR S768I V774M (PACC), Mut/WT
T24 construct: host or cells: Ba/F3

## C=CC(=O)N[C@H]1C=C(C)c2c(-c3cnc4ccccc4c3)c3c(N)ncnc3n2C1 [TAS 6417]
EGFR Ex19del/T790M/L792H
  ratio of IC50 for cells with mutant EGFR to IC50 for cells with wildtype EGFR (Mut/WT): 0.0002637
EGFR L858R S784F
  ratio of IC50 for cells with mutant EGFR to IC50 for cells with wildtype EGFR (Mut/WT): 0.001423
EGFR L833V
  ratio of IC50 for cells with mutant EGFR to IC50 for cells with wildtype EGFR (Mut/WT): 0.03111
EGFR L858R/C797S
  ratio of the IC50 value for cells with a PACC EGFR mutation to the IC50 value for cells with wildtype EGFR: 3.055
EGFR G719S
  ratio of the IC50 value for cells with a PACC EGFR mutation to the IC50 value for cells with wildtype EGFR: 0.01675
EGFR L858R/L792H
  ratio of the IC50 value for cells with a PACC EGFR mutation to the IC50 value for cells with wildtype EGFR: 0.004611
EGFR G719S T790M
  ratio of IC50 for cells with mutant EGFR to IC50 for cells with wildtype EGFR (Mut/WT): 0.032
EGFR Ex19del G796S
  ratio of the IC50 value for cells with a PACC EGFR mutation to the IC50 value for cells with wildtype EGFR: 0.06554
EGFR L858R G724S
  ratio of the IC50 value for cells with a PACC EGFR mutation to the IC50 value for cells with wildtype EGFR: 0.01631
EGFR L858R
  ratio of IC50 for cells with mutant EGFR to IC50 for cells with wildtype EGFR (Mut/WT): 0.003918
EGFR L833F
  ratio of IC50 for cells with mutant EGFR to IC50 for cells with wildtype EGFR (Mut/WT): 0.06886
EGFR R776H
  ratio of the IC50 value for cells with a PACC EGFR mutation to the IC50 value for cells with wildtype EGFR: 0.09
EGFR Ex19del T790M L718V
  ratio of IC50 for cells with mutant EGFR to IC50 for cells with wildtype EGFR (Mut/WT): 0.002884
EGFR G719A
  ratio of the IC50 value for cells with a PACC EGFR mutation to the IC50 value for cells with wildtype EGFR: 0.01801
[1]
  ratio of IC50 for cells with mutant EGFR to IC50 for cells with wildtype EGFR (Mut/WT): 0.0004661
EGFR L858R/V834L
  ratio of IC50 for cells with mutant EGFR to IC50 for cells with wildtype EGFR (Mut/WT): 0.0005227
EGFR T790M
  ratio of IC50 for cells with mutant EGFR to IC50 for cells with wildtype EGFR (Mut/WT): 0.6671
EGFR L861R
  ratio of IC50 for cells with mutant EGFR to IC50 for cells with wildtype EGFR (Mut/WT): 0.02984
EGFR Ex19del
  ratio of IC50 for cells with mutant EGFR to IC50 for cells with wildtype EGFR (Mut/WT): 0.00149
EGFR Ex19del T790M C797S
  ratio of IC50 for cells with mutant EGFR to IC50 for cells with wildtype EGFR (Mut/WT): 3.055
EGFR K757R
  ratio of the IC50 value for cells with a PACC EGFR mutation to the IC50 value for cells with wildtype EGFR: 0.4608
EGFR L858R T790M L718V
  ratio of IC50 for cells with mutant EGFR to IC50 for cells with wildtype EGFR (Mut/WT): 2.011
EGFR E709_T710del insD
  ratio of the IC50 value for cells with a PACC EGFR mutation to the IC50 value for cells with wildtype EGFR: 0.3335
EGFR S768I V774M
  ratio of the IC50 value for cells with a PACC EGFR mutation to the IC50 value for cells with wildtype EGFR: 0.3996
